Measured values taken from ChEMBL document CHEMBL3046292, “The effects of luteolin on phenoloxidase and the growth of Spodoptera exigua (Hubner) larvae (Lepidoptera: Noctuidae)” (J Pestic Sci, 2010).
In brackets after ≈: the same amount, converted by molar mass. Activity calls are given as the source filed them. No cut-off for these calls is given here.

Tests used:
Spodoptera exigua [1] = test: Insecticidal activity against third-instar Spodoptera exigua larvae assessed as pupation at 0.8 g/l (reference value: 96.67 +/- 1.40%); assay type: functional
Spodoptera exigua [2] = test: Insecticidal activity against third-instar Spodoptera exigua larvae assessed as pupation at 0.4 g/l (reference value: 96.67 +/- 1.40%); assay type: functional
Spodoptera exigua [3] = test: Insecticidal activity against third-instar Spodoptera exigua larvae assessed as pupation at 0.2 g/l (reference value: 96.67 +/- 1.40%); assay type: functional
Spodoptera exigua [4] = test: Insecticidal activity against third-instar Spodoptera exigua larvae assessed as pupation at 0.1 g/l (reference value: 96.67 +/- 1.40%); assay type: functional
Spodoptera exigua [5] = test: Insecticidal activity against third-instar Spodoptera exigua larvae assessed as per pupa weight at 1.6 g/l by pupa weight inhibition assay (reference value: 0.1054 +/- 0.01 g/pupae); assay type: functional
Spodoptera exigua [6] = test: Insecticidal activity against third-instar Spodoptera exigua larvae assessed as per pupa weight at 0.8 g/l by pupa weight inhibition assay (reference value: 0.1054 +/- 0.01 g/pupae); assay type: functional
Spodoptera exigua [7] = test: Insecticidal activity against third-instar Spodoptera exigua larvae assessed as per pupa weight at 0.4 g/l by pupa weight inhibition assay (reference value: 0.1054 +/- 0.01 g/pupae); assay type: functional
Spodoptera exigua [8] = test: Insecticidal activity against third-instar Spodoptera exigua larvae assessed as per pupa weight at 0.2 g/l by pupa weight inhibition assay (reference value: 0.1054 +/- 0.01 g/pupae); assay type: functional
Spodoptera exigua [9] = test: Insecticidal activity against third-instar Spodoptera exigua larvae assessed as per pupa weight at 0.1 g/l by pupa weight inhibition assay (reference value: 0.1054 +/- 0.01 g/pupae); assay type: functional
Spodoptera exigua [10] = test: Insecticidal activity against third-instar Spodoptera exigua larvae assessed as mortality at 8 g/l measured after 9 days; assay type: functional; details: 216 h
Spodoptera exigua [11] = test: Insecticidal activity against third-instar Spodoptera exigua larvae assessed as mortality at 4 g/l measured after 9 days; assay type: functional; details: 216 h
Spodoptera exigua [12] = test: Insecticidal activity against third-instar Spodoptera exigua larvae assessed as mortality at 2 g/l measured after 9 days; assay type: functional; details: 216 h
Spodoptera exigua [13] = test: Insecticidal activity against third-instar Spodoptera exigua larvae assessed as mortality at 16 g/l measured after 7 days; assay type: functional; details: 168 h
Spodoptera exigua [14] = test: Insecticidal activity against third-instar Spodoptera exigua larvae assessed as mortality at 8 g/l measured after 7 days; assay type: functional; details: 168 h
Spodoptera exigua [15] = test: Insecticidal activity against third-instar Spodoptera exigua larvae assessed as mortality at 4 g/l measured after 7 days; assay type: functional; details: 168 h
Spodoptera exigua [16] = test: Insecticidal activity against third-instar Spodoptera exigua larvae assessed as mortality at 2 g/l measured after 7 days; assay type: functional; details: 168 h
Spodoptera exigua [17] = test: Insecticidal activity against third-instar Spodoptera exigua larvae assessed as mortality at 16 g/l measured after 5 days; assay type: functional; details: 120 h
Spodoptera exigua [18] = test: Insecticidal activity against third-instar Spodoptera exigua larvae assessed as mortality at 8 g/l measured after 5 days; assay type: functional; details: 120 h
Spodoptera exigua [19] = test: Insecticidal activity against third-instar Spodoptera exigua larvae assessed as mortality at 4 g/l measured after 5 days; assay type: functional; details: 120 h
Spodoptera exigua [20] = test: Insecticidal activity against third-instar Spodoptera exigua larvae assessed as mortality at 2 g/l measured after 5 days; assay type: functional; details: 120 h
Spodoptera exigua [21] = test: Insecticidal activity against third-instar Spodoptera exigua larvae assessed as mortality at 16 g/l measured after 3 days; assay type: functional; details: 72 h
Spodoptera exigua [22] = test: Insecticidal activity against third-instar Spodoptera exigua larvae assessed as mortality at 8 g/l measured after 3 days; assay type: functional; details: 72 h
Spodoptera exigua [23] = test: Insecticidal activity against third-instar Spodoptera exigua larvae assessed as mortality at 4 g/l measured after 3 days; assay type: functional; details: 72 h
Spodoptera exigua [24] = test: Insecticidal activity against third-instar Spodoptera exigua larvae assessed as mortality at 2 g/l measured after 3 days; assay type: functional; details: 72 h
[25] = biological target: T1, Phenol oxidase (Plutella xylostella) (UniProt B5U2Z5); test: In vivo inhibition of Spodoptera exigua larvae phenoloxidase
T1 sequence (whole entry): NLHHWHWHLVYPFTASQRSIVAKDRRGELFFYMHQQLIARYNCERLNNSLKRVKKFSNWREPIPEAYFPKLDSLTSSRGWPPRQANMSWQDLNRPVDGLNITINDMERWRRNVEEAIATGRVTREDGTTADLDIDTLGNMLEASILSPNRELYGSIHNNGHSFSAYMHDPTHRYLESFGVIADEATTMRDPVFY

[26] = biological target: T1, Phenol oxidase (Plutella xylostella); test: Inhibition of Spodoptera exigua larvae phenoloxidase assessed as remaining activity at 0.45 mmol/l
[27] = biological target: T1, Phenol oxidase (Plutella xylostella); test: Inhibition of Spodoptera exigua larvae phenoloxidase assessed as remaining activity at 0.15 mmol/l
Spodoptera exigua [28] = test: Insecticidal activity against third-instar Spodoptera exigua larvae assessed as mortality treated after 11 days; assay type: functional; details: 264 h
Spodoptera exigua [29] = test: Insecticidal activity against third-instar Spodoptera exigua larvae assessed as mortality treated after 9 days; assay type: functional; details: 216 h
Spodoptera exigua [30] = test: Insecticidal activity against third-instar Spodoptera exigua larvae assessed as mortality treated after 7 days; assay type: functional; details: 168 h
Spodoptera exigua [31] = test: Insecticidal activity against third-instar Spodoptera exigua larvae assessed as eclosion at 1.6 g/l (reference value: 96.67 +/- 1.40%); assay type: functional
Spodoptera exigua [32] = test: Insecticidal activity against third-instar Spodoptera exigua larvae assessed as eclosion at 0.8 g/l (reference value: 96.67 +/- 1.40%); assay type: functional
Spodoptera exigua [33] = test: Insecticidal activity against third-instar Spodoptera exigua larvae assessed as eclosion at 0.4 g/l (reference value: 96.67 +/- 1.40%); assay type: functional
Spodoptera exigua [34] = test: Insecticidal activity against third-instar Spodoptera exigua larvae assessed as eclosion at 0.2 g/l (reference value: 96.67 +/- 1.40%); assay type: functional
Spodoptera exigua [35] = test: Insecticidal activity against third-instar Spodoptera exigua larvae assessed as eclosion at 0.1 g/l (reference value: 96.67 +/- 1.40%); assay type: functional
Spodoptera exigua [36] = test: Insecticidal activity against third-instar Spodoptera exigua larvae assessed as pupation at 1.6 g/l (reference value: 96.67 +/- 1.40%); assay type: functional
Spodoptera exigua [37] = test: Insecticidal activity against third-instar Spodoptera exigua larvae assessed as inhibition of body weight increase at 16 g/l measured from 24 hr to 48 hr; assay type: functional
Spodoptera exigua [38] = test: Insecticidal activity against third-instar Spodoptera exigua larvae assessed as inhibition of body weight increase at 8 g/l measured from 24 hr to 48 hr; assay type: functional
Spodoptera exigua [39] = test: Insecticidal activity against third-instar Spodoptera exigua larvae assessed as inhibition of body weight increase at 4 g/l measured from 24 hr to 48 hr; assay type: functional
Spodoptera exigua [40] = test: Insecticidal activity against third-instar Spodoptera exigua larvae assessed as inhibition of body weight increase at 2 g/l measured from 24 hr to 48 hr; assay type: functional
Spodoptera exigua [41] = test: Insecticidal activity against third-instar Spodoptera exigua larvae assessed as inhibition of body weight increase at 1 g/l measured from 24 hr to 48 hr; assay type: functional
Spodoptera exigua [42] = test: Insecticidal activity against third-instar Spodoptera exigua larvae assessed as mortality treated after 5 days; assay type: functional; details: 120 h
Spodoptera exigua [43] = test: Insecticidal activity against third-instar Spodoptera exigua larvae assessed as mortality at 16 g/l measured after 11 days; assay type: functional; details: 264 h
Spodoptera exigua [44] = test: Insecticidal activity against third-instar Spodoptera exigua larvae assessed as mortality at 8 g/l measured after 11 days; assay type: functional; details: 264 h
Spodoptera exigua [45] = test: Insecticidal activity against third-instar Spodoptera exigua larvae assessed as mortality at 4 g/l measured after 11 days; assay type: functional; details: 264 h
Spodoptera exigua [46] = test: Insecticidal activity against third-instar Spodoptera exigua larvae assessed as mortality at 2 g/l measured after 11 days; assay type: functional; details: 264 h
Spodoptera exigua [47] = test: Insecticidal activity against third-instar Spodoptera exigua larvae assessed as mortality at 16 g/l measured after 9 days; assay type: functional; details: 216 h

O=c1cc(-c2ccc(O)c(O)c2)oc2cc(O)cc(O)c12 [LUTEOLIN]
Activity (Spodoptera exigua [1]): 53.33% | Activity (Spodoptera exigua [2]): 70% | Activity (Spodoptera exigua [3]): 90% | Activity (Spodoptera exigua [4]): 96.67% | Activity (Spodoptera exigua [5]): 0.0647 g | Activity (Spodoptera exigua [6]): 0.0743 g | Activity (Spodoptera exigua [7]): 0.0798 g | Activity (Spodoptera exigua [8]): 0.0898 g | Activity (Spodoptera exigua [9]): 0.0905 g | mortality at 8000 µg/mL (Spodoptera exigua [10]): 72.9% | mortality at 4000 µg/mL (Spodoptera exigua [11]): 57.4% | mortality at 2000 µg/mL (Spodoptera exigua [12]): 33.8% | mortality at 16000 µg/mL (Spodoptera exigua [13]): 74.5% | mortality at 8000 µg/mL (Spodoptera exigua [14]): 57.7% | mortality at 4000 µg/mL (Spodoptera exigua [15]): 48.5% | mortality at 2000 µg/mL (Spodoptera exigua [16]): 26.3% | mortality at 16000 µg/mL (Spodoptera exigua [17]): 60.6% | mortality at 8000 µg/mL (Spodoptera exigua [18]): 47.3% | mortality at 4000 µg/mL (Spodoptera exigua [19]): 38% | mortality at 2000 µg/mL (Spodoptera exigua [20]): 15.8% | mortality at 16000 µg/mL (Spodoptera exigua [21]): 33.2% | mortality at 8000 µg/mL (Spodoptera exigua [22]): 29.8% | mortality at 4000 µg/mL (Spodoptera exigua [23]): 23.5% | mortality at 2000 µg/mL (Spodoptera exigua [24]): 10.1% | inhibition [25]: Active | Activity [26]: 45.3% | Activity [27]: 67.2% | LC50 (Spodoptera exigua [28]): 2530 µg/mL (≈ 8.84 mM) | LC50 (Spodoptera exigua [29]): 3540 µg/mL (≈ 12.4 mM) | LC50 (Spodoptera exigua [30]): 5560 µg/mL (≈ 19.4 mM) | Activity (Spodoptera exigua [31]): 36.67% | Activity (Spodoptera exigua [32]): 43.33% | Activity (Spodoptera exigua [33]): 66.67% | Activity (Spodoptera exigua [34]): 83.33% | Activity (Spodoptera exigua [35]): 86.67% | Activity (Spodoptera exigua [36]): 36.67% | inhibition at 16000 µg/mL (Spodoptera exigua [37]): 66.8% | inhibition at 8000 µg/mL (Spodoptera exigua [38]): 56.8% | inhibition at 4000 µg/mL (Spodoptera exigua [39]): 49.6% | inhibition at 2000 µg/mL (Spodoptera exigua [40]): 42.7% | inhibition at 1000 µg/mL (Spodoptera exigua [41]): 38% | LC50 (Spodoptera exigua [42]): 8970 µg/mL (≈ 31.3 mM) | mortality at 16000 µg/mL (Spodoptera exigua [43]): 90.5% | mortality at 8000 µg/mL (Spodoptera exigua [44]): 77.7% | mortality at 4000 µg/mL (Spodoptera exigua [45]): 61% | mortality at 2000 µg/mL (Spodoptera exigua [46]): 42.6% | mortality at 16000 µg/mL (Spodoptera exigua [47]): 84.1%
